System: purinergic, P2Y receptor
Test: Calcium flux assay in continuous-flow microfluidic device (Fluo-3 fluorescence)
Type: cell-based
Conditions: THP-1 cells loaded with Fluo-3; UTP 0-3 μM; FIG. 13 upper trace
Method: Using a continuous flow format in planar chips using a wick to generate constant pressure driven flow, cells were mixed with an agonist and down-stream fluorescence detectors were used to monitor indicator cells using Fluo-3 (Molecular Probes Inc.) calcium sensitive fluorescent dye as a probe for receptor activation of calcium fluxes. THP-1 cells were loaded with Fluo-3 by incubation with a 4 μM concentration of the Fluo-3 AM (acetoxymethyl ester) in Hank's Balanced Salt Solution(HBSS) containing 20 mM HEPES, pH 7.0, and 1 mg/ml bovine serum albumin. After a 40 minute incubation at 37° C., Syto-6, a fluorescent DNA stain, was added to 2.5 μM, and the cells were incubated for an additional 10 minutes at room temperature. The cells were then washed free of excess dye by pelleting at 300×g for 5 minutes and resuspending and repelleting. The cells were resuspended in Cell Buffer (HBSS containing 20 mM HEPES, pH 7.0, 1 mg/ml BSA and 10% Optiprep). […]
By taking the ratio of the two fluorescent dyes, it is possible to normalize the calcium flux response in the THP-1 cells since the DNA staining intensity is a constant in diploid, resting cells, and thereby quantitate the increase in calcium concentration.

## O=c1ccn([C@@H]2O[C@H](COP(=O)(O)OP(=O)(O)OP(=O)(O)O)[C@@H](O)[C@H]2O)c(=O)[nH]1 [UTP]
  fluorescence of the calcium sensitive dye (intracellular free calcium): increases with UTP treatment in a dose dependent manner

Reference: US6416642B1, “Method and apparatus for continuous liquid flow in microscale channels using pressure injection, wicking, and electrokinetic injection” (Caliper Technologies Corp., priority 1999, dated 2002)
